According to PubChem BioAssay AID2384 (Southern Research Specialized Biocontainment Screening …, 2010):

Test system: S. typhi GFP reporter counter-screen, fluorescence, 4 h
Test: S. typhi counter-screen signal inhibition – fluorescence, 4 h, counter-screen for PhoP regulon inhibitor project, dose response (AID 2384)

Structure (SMILES)	IC50
CN(C)CC/C=C1/c2cc(F)ccc2Sc2ccc(Cl)cc21	34.3 µM
c1ccc(-c2nc3ccccc3[nH]2)cc1	93.5 µM
Clc1ccc(C[n+]2cc(-c3ccc(Cl)cc3)n3c2CCC3)cc1	37.7 µM
O=C(Cc1ccc([N+](=O)[O-])cc1)N/N=C/c1ccc([N+](=O)[O-])o1	20.9 µM
O=C(C[n+]1cnn(CC(=O)c2ccc(Cl)cc2Cl)c1)c1ccc([N+](=O)[O-])cc1	36.1 µM
Oc1c(CN2CCOCC2)cc(COCc2ccccc2)c2cccnc12	36 µM
Cc1ccc(C)c(NC(=O)CCC(=O)N/N=C/c2cc([N+](=O)[O-])ccc2O)c1	47.1 µM
Cc1c2ccncc2c(C)c2c1[nH]c1ccccc12	21.2 µM
Cc1ccc(C)c(Nc2cc(C)nc3ccccc23)c1	54.9 µM
CN(C)c1ccc(O)c2c1CC1CC3[C@@H](N(C)C)C(=O)C(C(N)=O)=C(O)[C@]3(O)C(=O)C1=C2O (stereo partly drawn)	3.9 µM
CN(Cc1ccccc1)CC(O)COc1ccc(CNCc2ccc(Cl)s2)cc1 (stereo not drawn)	30.4 µM
COc1cc2c(cc1O)[C@H](Cc1ccc(Oc3cc(C[C@@H]4NCCc5cc(OC)c(O)cc54)ccc3O)cc1)NCC2	64 µM
C#CCOCCOCCOCCNc1nc(N2CCN(C(=O)C(Cc3cc4ccccc4[nH]3)n3cc(C(N)C(C)CC)nn3)CC2)nc(N2CCN(C(=O)C(Cc3cc4ccccc4[nH]3)n3cc(C(N)C(C)CC)nn3)CC2)n1 (stereo not drawn)	134 µM
O=C(N/N=C/c1ccccn1)c1ccc(Br)o1	45.1 µM
CCCOc1ccc(C(=O)NNC(=S)NC(C)=O)cc1	39.2 µM
Cc1c(N=Cc2cc(Br)cc(Br)c2O)cccc1C(=O)O	39.5 µM
O=C(Nc1csc(Cl)c1)c1ccccc1	70.6 µM
O=C(CC(=O)c1cc(Cl)ccc1O)c1ccccc1	26.8 µM
CCCCNCCCOc1cccc(Cl)c1Cl	58.5 µM
CSc1cccc(NC(=O)/C=C/c2ccccc2)c1	72 µM
C#CCOCCOCCOCCNc1nc(N2CCN(C(=O)[C@H]([C@@H](C)CC)n3cc([C@@H](N)Cc4ccc(O)cc4)nn3)CC2)nc(N2CCN(C(=O)[C@H](Cc3cc4ccccc4[nH]3)n3cc([C@@H](N)CC(C)C)nn3)CC2)n1	27.2 µM
Cc1cc(N/N=C/c2ccc(O)cc2)c2cccc(C)c2n1	47.5 µM

Structure (SMILES)	IC50
Cc1ccc(-c2c[n+](Cc3ccc(Cl)c(Cl)c3)c3n2CCC3)cc1	25.8 µM
CNC(=S)N1CCN(c2c(F)cc3c(=O)c(C(=O)O)cn(C4CC4)c3c2OC)CC1C (stereo not drawn)	48.2 µM
COc1cc2c3cc1Oc1cc(ccc1O)C[C@@H]1c4c(cc(OC)c(O)c4Oc4ccc(cc4)C[C@H]3N(C)CC2)CCN1C	93.4 µM
Cc1nc2c(=O)n(C)c(=O)nc-2n(C)n1	2.32 µM
COc1cc(CNCCc2c[nH]c3ccccc23)ccc1OCc1ccc(F)cc1	37.6 µM
C#CCOCCOCCOCCNc1nc(N2CCN(C(=O)CCCCCCCCCCNC(=O)Cn3cc(CCCCCN)nn3)CC2)nc(N2CCN(C(=O)CCCCCCCCCCNC(=O)[C@H]([C@@H](C)CC)n3cc(CCCCN=C(N)N)nn3)CC2)n1	38.2 µM
CCCCOc1ccc(Br)cc1CSC(=N)N	14.2 µM
CCCCc1ccc(N/C(N)=N/c2nc(C)cc(C)n2)cc1	52.3 µM
CCN(CC)c1ccc(CNc2nc3ccccc3n2CCN2CCCCC2)cc1	43.5 µM
Cc1ccc2c(c1)c1c(n2CC(O)CN2CCC(C)CC2)CCCC1 (stereo not drawn)	82.4 µM
O=C(NC(=S)NNC(=O)c1cccs1)c1ccc(Br)o1	60.2 µM
O=C(Nc1ccc(Cc2ccncc2)cc1)c1ccc([N+](=O)[O-])o1	126 µM
CC(C)Oc1ccc(Cc2cnc(N)nc2N)cc1	33.3 µM
CCN(CC(O)COc1ccc(OCC(O)CN(CC)C2CCCCC2)cc1)C1CCCCC1 (stereo not drawn)	52.4 µM
S=C(NCc1ccc(Cl)cc1)Nc1ccncc1	35 µM
CC(C)C1N=C(c2ccc3c(c2)OCO3)CC(c2ccccc2O)N1 (stereo not drawn)	117 µM
CCCCCC(CC(=O)NO)C(=O)NC(C(=O)N1CCCC1CO)C(C)C (stereo not drawn)	20.3 µM
C[C@@H](NC(=O)/C(C#N)=C/c1ccc(O)c(O)c1)c1ccccc1	84.3 µM
CCOC(=O)N1CCN(C(=O)c2cn(CC)c3cc(N4CCN(C)CC4)c(F)cc3c2=O)CC1	20.3 µM
CN1CCN(C(c2ccc(C(F)(F)F)cc2)c2ccc3cccnc3c2O)CC1 (stereo not drawn)	21.8 µM
CC(=O)Nc1cccc(NC(=O)Nc2ccc(F)cc2F)c1	142 µM
Cc1[nH]c2ccc(C(=O)Nc3ccncc3)cc2c1C	90.8 µM

Structure (SMILES)	IC50
CCC(=O)c1ccc(OCC(O)CNCCc2ccc(Cl)cc2)cc1 (stereo not drawn)	147 µM
CCOC(=O)C1=C(C(C)=O)C(c2cccnc2)C(C#N)=C(N)O1 (stereo not drawn)	57.5 µM
CO/N=C(/C(=O)N[C@@H]1C(=O)N2C(C(=O)O)=CCS[C@H]12)c1cnc(N)s1	27 µM
CC(NCC(O)COCCC12CC3CC(CC(C3)C1)C2)c1ccccc1 (stereo not drawn)	23.1 µM
O=C(NC(=S)NNC(=O)c1cnccn1)c1ccc(F)cc1	24.4 µM
CCCCCCOc1ccc(CN2CCN(CC)CC2)cc1	100 µM
O=C(Nc1ccccc1)c1c(O)[nH]c(=S)[nH]c1=O	84.8 µM
CCCCOc1ccc(NC2=NC3(CCCCC3)N=C(N)N2)cc1	34.7 µM
O=C(/C=C/c1ccccc1Cl)c1ccccc(=O)c1O	28 µM
CCN1/C(=C/C(C)=C/c2sc3ccccc3[n+]2CC)Sc2ccccc21	3.1 µM
CO[C@H]1C=CO[C@@]2(C)Oc3c(C)c(O)c4c(O)c(c5c(c4c3C2=O)NC2(CCN(CC(C)C)CC2)N=5)=NC(=O)C(C)=CC=C[C@H](C)[C@H](O)[C@@H](C)[C@@H](O)[C@@H](C)[C@H](OC(C)=O)[C@@H]1C	2.19 µM
O=C(CSc1nnc(-c2ccccc2)n1-c1ccc(Cl)cc1)NC1CCS(=O)(=O)C1 (stereo not drawn)	44.3 µM
Cc1c(N2C(=O)/C(=C3\C(=O)N(CC(=O)O)c4ccccc43)SC2=S)c(=O)n(-c2ccccc2)n1C	95.2 µM
CN1CCC(OC(=O)c2ccc(Cl)cc2Cl)CC1	36.8 µM
O=C(C[n+]1ccc(-c2ccccc2)cc1)Nc1ccc([N+](=O)[O-])cc1	26.3 µM
Cc1nn(-c2cc(N3CCNCC3)ccc2[N+](=O)[O-])c(=O)c2ccccc12	141 µM
O=C(O)c1cc2c(cn1)[nH]c1ccccc12	92.6 µM
CC1CCC(C(C)C)C(OC(=O)Cn2c(COc3ccccc3)[n+](C)c3ccccc32)C1 (stereo not drawn)	25.6 µM
CN(Cc1ccccc1)CC(O)COc1ccc(CNCCCOc2cccnc2)cc1 (stereo not drawn)	53.3 µM
OC(CNCCc1ccc(Cl)cc1)COc1cc(Cl)ccc1Cl (stereo not drawn)	80.6 µM
O=C(/C=C/c1ccccc1)c1cc(Br)ccc(=O)c1O	21.8 µM
CCc1ccc(CNCc2ccc(OCC(O)CN(C)Cc3ccccc3)cc2)nc1 (stereo not drawn)	67.6 µM

Structure (SMILES)	IC50
O=C(N/N=C/c1ccccc1O)C1SCCCS1	72.9 µM
COc1c(N2CCNC(C)C2)c(F)cc2c(=O)c(C(=O)O)cn(C3CC3)c12 (stereo not drawn)	1.1 µM
COc1ccc(Nc2nc(NCC3CCCO3)c3ccccc3n2)c(OC)c1 (stereo not drawn)	73.2 µM
O=C(N/N=C/c1cc(Br)cc(Br)c1O)c1ccncc1	45.3 µM
CC[C@@H](C)[C@H](CN[C@H](CNC)C(C)C)NC[C@@H](C)c1ccc(CC(C)C)cc1	26.2 µM
Cc1ccc(Cn2c(=N)n(CC(O)COc3ccccc3)c3ccccc32)cc1 (stereo not drawn)	37.9 µM
OCCNc1nc(Nc2ccc(Br)cc2)nc2ccccc12	15.9 µM
CCn1cc(C(=O)O)c(=O)c2cc(F)c(N3CCN(C(=S)NC(=O)c4ccccc4)CC3)cc21	78.2 µM
O=C(N/N=C/c1ccc(O)c(O)c1)C1c2ccccc2Oc2ccccc21	64.8 µM
Oc1ccc(C[C@H]2CNCCN2CCCCC2CCCCC2)cc1	70.5 µM
Cc1cc(C)n(-c2nc(NCCN(C)C)c3c4c(sc3n2)CCCC4)n1	37.9 µM
O=C(NC(CO)Cc1ccc([N+](=O)[O-])cc1)C(Cl)Cl (stereo not drawn)	3.82 µM
COc1ccccc1Nc1c2ccccc2nc2ccccc12	99.9 µM
Cc1cccc2sc(N(CCCN(C)C)C(=O)COc3ccc(Cl)cc3)nc12	37.6 µM
COC(=O)C(C)NC(=S)N1CCN(c2c(F)cc3c(=O)c(C(=O)O)cn(C4CC4)c3c2OC)CC1C (stereo not drawn)	39.6 µM
CC(Nc1nc(N2CCCCC2)nc2ccccc12)c1ccccc1 (stereo not drawn)	133 µM
CC(C(=O)c1ccc(-c2ccccc2)cc1)[n+]1cccc(NC(=O)c2ccccc2)c1 (stereo not drawn)	19.4 µM
COc1ccc2sc(N(CCCN(C)C)C(=O)c3ccc(S(=O)(=O)N4CCc5ccccc5C4)cc3)nc2c1	122 µM
Nc1[nH]ncc1-c1ccccc1	48 µM
CCOc1ccc(Nc2c3ccccc3nc3ccccc23)cc1	19.6 µM
CN1CCN(C2Cc3cc(Cl)ccc3Sc3cc(F)ccc32)CC1 (stereo not drawn)	22.2 µM
CC1CCN(CCC(=O)Nc2ccc(Cl)cc2)CC1	105 µM

Structure (SMILES)	IC50
O=[N+]([O-])c1cccc2c(N3CCCC3)ccnc12	32.8 µM
O=C(O)c1ccc(N2C(=O)CC(N3C(=O)/C(=C/c4ccc(Cl)cc4)SC3=S)C2=O)cc1 (stereo not drawn)	23.7 µM
Oc1ccc(/C=N/N=C(c2ccccc2)c2ccccc2)c(O)c1O	33.6 µM
Cc1ccc(OCC(=O)N/N=C/c2ccc([N+](=O)[O-])o2)cc1	28.1 µM
Cc1ccc(N/C(=C\C(=O)c2ccccc2)C(=O)O)cc1	74.4 µM
Cc1cc(C)n(-c2nc(SCCN(C)C)c3c4c(sc3n2)CCCC4)n1	37.8 µM
Cc1cc2oc(=O)cc(CN3CCN(C/C=C/c4ccccc4)CC3)c2cc1O	92.9 µM
CC1CCN(CCCNC(=O)c2ccc3c(=O)n(Cc4ccc(Cl)cc4)c(=S)[nH]c3c2)CC1	47.8 µM
CN(C)c1ccc(O)c2c1CC1CC3C(N(C)C)C(=O)C(C(N)=O)=C(O)[C@@]3(O)C(=O)C1=C2O (stereo partly drawn)	1.69 µM
COc1cccc(-c2nnc(NC(=O)c3ccc(Cl)s3)o2)c1	45.7 µM
O=[N+]([O-])c1cc(/C=N/Nc2nc3ccccc3[nH]2)c(O)cc1O	17.8 µM
O=C(NC(CO)C(O)c1ccc([N+](=O)[O-])cc1)C(Cl)Cl (stereo not drawn)	3.02 µM
O=C(CSc1ccccn1)N/N=C/c1cc([N+](=O)[O-])ccc1O	40.4 µM
O=C(O)c1ccc(N2C(=O)CSC2=S)cc1	137 µM
CS(=O)(=O)c1ccc2nc(NC(=O)c3ccc(Cl)nc3)sc2c1	27.8 µM
c1ccc(CN2CCN(c3ncnc4c3[nH]c3ccccc34)CC2)cc1	73.8 µM
CCOc1ccc(Nc2nc(NCC3CCCO3)c3ccccc3n2)cc1 (stereo not drawn)	19.6 µM
CCCCCCCCNc1ncnc2ccccc12	33.2 µM
Cc1ccc(Nc2cc(C)nn2-c2nc(C)cc(=O)[nH]2)cc1	11.2 µM
CCC(/C=C1\Sc2ccc(OC)cc2N1CCO)=C\c1sc2ccc(OC)cc2[n+]1CCO	32 µM
